Patent publication US20240166596A1, “SULFAMOYL BENZENE DERIVATIVES AND USES THEREOF” (AphioTx Inc., priority 2021, published 2024)

Columns and labels:
[1] = biological target: T1, rPanx1 (Rattus norvegicus Pannexin-1) expressed in 293T cells (Rattus norvegicus, UniProt P60570); experiment: Whole-cell patch-clamp of Panx1 currents in transfected 293T cells; assay type: cell-based, Homo sapiens; conditions: voltage ramp -80 to +80 mV, various doses
T1 construct: expressed in transfected cells; host or cells: Human embryonic kidney-293T cells (ATCC), transient Lipofectamine 2000 transfection
Procedure: To further compare the effects of probenecid, Compounds 1 and 5 on Pannexin-1 channels […] Panx-1 was expressed in embryonic kidney-293T cells (293T) and channel activity was assessed at various doses of each compound.
Rattus norvegicus Pannexin-1 (rPanx1) complementary DNA (cDNA) was cloned between BamHI and SalI sites in a pRK5 expression vector (pRK5-rPanx1). Enhanced green fluorescent protein (EGFP) plasmid (pEGFP-C1) was commercially purchased (addgene).
Human embryonic kidney-293T cells (293T) were purchased from ATCC and routinely maintained in the laboratory. Adherent 293T cells were grown in Dulbecco's modified Eagle's medium (Thermo Fisher) supplemented with 10% fetal bovine serum (Thermo Fisher) and 1% penicillin-streptomycin (10,000 U/mL; Thermo Fisher) at 37° C. in a 5% CO2 humidified growth incubator. 293T cells between the passages 6-20 were used for experiments. For patch-clamp recordings, 293T cells reaching 40-60% confluency on 35 mm culture plates were transiently transfected using Lipofectamine 2000 (Thermo Fisher) 36-48 hours before experiments, using the manufacturer's protocol. 293T cells were transfected with 2.5 μg pRK5-rPanx1 and 0.5 μg pEGFP-C1 cDNAs at a mixed ratio of 5:1 to identify positively transfected cells.
On the day of experiments, transiently transfected 293T cells overexpressing rPanx1 and EGFP cDNAs were seeded onto poly-d-lysine coated glass coverslips at least 2 hours before recordings. […] Data was acquired using Clampex (v.10) software and an Axon Digidata 1550A digitizer (Axon Instruments) at 10 kHz, with currents analyzed offline in Clampfit software (v.10.7). […]
293T cells were voltage clamped at −60 mV in whole-cell configuration and exposed to a 300 ms voltage ramp (−80 to +80 mV) before stepping back to −60 mV to record rPanx1 voltage-sensitive currents. Baseline currents were first measured in extracellular solution before perfusion of drug compounds in incrementally increasing concentrations. […]

C57BL/6J mice [2] = experiment: Naloxone-precipitated morphine withdrawal, composite withdrawal score; assay type: in vivo; conditions: for Withdrawal behaviors: 60 minutes prior to naloxone
Procedure: Adult male C57BL/6J (7-9 weeks) mice were used. Mice were housed under 12/12 hour light/dark cycles with ad libitum access to food and water. Mice were randomly allocated to different test groups. All experiments were approved by the University of Calgary Animal Care Committee and are in accordance with the guidelines of the Canadian Council on Animal Care.
Morphine sulfate (MS, PCCA) prepared in 0.9% sterile saline solution was injected i.p. into male C57BLJ6J (20-30g) mice. Mice received ascending doses of morphine (i.p.) at 8 hours intervals: day 1, 10mg/kg; day 2, 20 mg/kg; day 3, 30 mg/kg; day 4, 40mg/kg. On day 5, mice received a morning injection of morphine (50 mg/kg). A subset of mice received probenecid (15, 25, and 50 mg/kg i.p., Invitrogen) or Compound 1 (0.1, 0.5 and 1 mg/kg) 1 hour following morphine. Mice then received i.p. naloxone (2 mg/kg, naloxone hydrochloride dihydrate, Sigma) 2 hours following morphine to rapidly induce opioid withdrawal. Control mice received equivalent volumes of 0.9% saline or appropriate vehicle solution (0.1% DMSO in saline) and were challenged with naloxone on day 5. Withdrawal behaviors were then scored for 30 minutes post naloxone injection. Behaviors were scored for occurrence and then scaled for severity at 5-minute intervals. Behaviors that were assigned a standardized score between 0-3 depending on severity were jumping, headshakes, wet-dog shakes, chewing/licking, and teeth chattering. Behaviors that were scored 1 point for presence during a 5-minute interval include piloerection and tremors/twitching. The mice were then weighed following the 30 minutes, and the weight difference was assigned a standardized score dependent on the weight change between 0-3 as well. The scaled and present/absent signs were compiled over the 30 minutes to produce a composite withdrawal score.
All data are presented as the mean±standard error mean (s.e.m), and each circle represents an individual animal or experiment. Tests of statistical difference were performed with GraphPad Prism 6 using either an ordinary one-way ANOVA with posthoc Dunnet test, or a two-way ANOVA with post hoc Sidak test. Sample sizes are consistent with those reported in similar studies and provide sufficient power to detect changes with the appropriate statistical analysis. For all experiments, a criterion a level was set at 0.05.

C57BL/6J mice [3] = experiment: as above; assay type: in vivo; conditions: 0.5 mg/kg, 30 minutes before withdrawal

T1 sequence (P60570 whole entry): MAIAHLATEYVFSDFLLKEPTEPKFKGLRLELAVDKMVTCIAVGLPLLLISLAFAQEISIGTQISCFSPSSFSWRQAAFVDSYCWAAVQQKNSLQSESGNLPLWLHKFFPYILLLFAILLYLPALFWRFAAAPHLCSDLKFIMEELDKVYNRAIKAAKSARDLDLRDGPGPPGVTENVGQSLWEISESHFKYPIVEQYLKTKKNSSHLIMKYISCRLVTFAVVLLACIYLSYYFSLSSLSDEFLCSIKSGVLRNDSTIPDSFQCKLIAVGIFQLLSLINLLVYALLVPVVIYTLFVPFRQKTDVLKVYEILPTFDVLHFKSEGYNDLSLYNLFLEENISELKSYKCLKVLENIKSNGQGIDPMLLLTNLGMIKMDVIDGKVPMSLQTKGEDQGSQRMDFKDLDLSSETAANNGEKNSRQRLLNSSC

- Panx1 inhibitory potency relative to Probenecid (patch-clamp) [1]: more potent
SMILES: CCCN(CCC)S(=O)(=O)c1ccc(C(O)(C(F)(F)F)C(F)(F)F)cc1 [Compound 1, 4-(1,1,1,3,3,3-hexafluoro-2-hydroxypropan-2-yl)-N,N-dipropylbenzenesulfonamide]
- Withdrawal behaviors (C57BL/6J mice [2]; 0.1 mg/kg): significantly attenuated
- Withdrawal behaviors (C57BL/6J mice [2]; 0.5 mg/kg): significantly attenuated
- Withdrawal behaviors (C57BL/6J mice [2]; 1 mg/kg): significantly attenuated
- Effective dose, fold lower than probenecid (C57BL/6J mice [2]; 0.1-1 mg/kg vs probenecid 50 mg/kg): 50-500 fold
- Withdrawal behaviors (C57BL/6J mice [3]): not effective
